Key:
[1] = In vitro photothermal efficiency under 808 nm laser radiation; format: physicochemical; settings: for highest temperature of the solution: 2.0 W/cm^2, solutions 0.2-1.2 mg/mL in PBS
Procedure: To evaluate in vitro thermogenesis of IR-780 solution and IR-780-F solution, 10 millimoles per litter (mM) IR-780-F solution dissolved in the dimethyl sulfoxide is used, and the IR-780-F solution is respectively diluted to the concentrations of 0.2 milligrams per milliliters (mg/mL), 0.4 mg/mL, 0.8 mg/mL, and 1.2 mg/mL with the phosphate buffered saline and these IR-780-F solutions and the phosphate buffered saline are evaluated. The IR-780 solution is prepared as above.
Temperature changes of the IR-780-F solutions and the phosphate buffered saline and temperature changes of the IR-780 solutions and the phosphate buffered saline are respectively recorded by using an infrared thermal imaging camera (a model of FLIR-E6). The phosphate buffered saline as a control group, 0.2 mg/mL of the IR-780-F solution and 0.2 mg/mL of the IR-780 solution, 0.4 mg/mL of the IR-780-F solution and 0.4 mg/mL of the IR-780 solution, 0.8 mg/mL of the IR-780-F solution and 0.8 mg/mL of the IR-780 solution, 1.2 mg/mL of the IR-780-F solution and 1.2 mg/mL of the IR-780 solution are all exposed to 808 nm laser radiation with a power density of 2.0 Watt per square centimeter (W/cm^2) to be measured and recorded the temperature changes.

[2] = test system: murine mammary carcinoma cells (4T1 cells); assay: In vitro evaluation of cytotoxicity by CCK-8; format: cell-based; settings: 10 μM to 60 μM, incubated 1 h
Procedure: Respective toxicity of the IR-780-F solution and the IR-780 solution with concentrations from 10 μM to 60 μM on murine mammary carcinoma cells (also referred to as 4T1 cells) is measured by cell counting kit-8 (CCK-8). Incubated 4T1 cells are collected and centrifuged to prepare cell suspensions, and a cell concentration is adjusted to 8×10^4 cells per milliliter. The 4T1 cells are transferred to 96-well plates, and 100 microliters (μL) 4T1 cells are added to each well, so that a density of the cells to be tested is about 8000 cells per well, and the number of the 96-well plates for experiment is two. The two 96-well plates inoculated with the cells to be tested are placed in an incubator at 37° C. for 12 h. One plate is incubated with the IR-780-F solutions with a concentration gradient from 10 μM to 60 μM for 1 h; the other plate is incubated with the IR-780 solutions with a concentration gradient from 10 μM to 60 μM for 1 h. After the end of incubation, CCK-8 reagent (a volume of 10 μL, a concentration of 5 mg/mL, i.e. 0.5% CCK-8 reagent) is immediately added to the each well and the two 96-well plates continue to incubate for 40 min. Finally, absorptivity and intensity of the each well are tested by an enzyme calibration, and cell viability of the control group is taken as 100%, and the cell viability of the test groups are taken as the percentage of the control group.

[3] = test system: 4T1 tumor-bearing nude mice; assay: In vivo NIR fluorescence imaging / distribution in tumor-bearing mice; set-up: species or system BALB/c Nude mice; settings: 4 mg/kg via tail vein
Procedure: (§1) The incubated 4T1 cells are collected by centrifugation, rinsed three times with PBS buffer solution to prepare cell suspensions, which are used a cell counter to count cell number. The cell suspensions are respectively diluted to desired concentrations with the PBS buffer solution. The pretreated 4T1 cells (about 1×10^6 per 100 μL) are injected subcutaneously into right hind legs of BALB/c Nude mice and tumor model mice are obtained after about one week.
In order to determine an optimal time for in vivo photothermal treatment with the IR-780-F, tissue permeability and distribution of the IR-780-F in tumor-bearing mice are examined by means of a whole animal near infrared (NIR) imaging system. An injection of the IR-780-F (containing 12.4% dimethyl sulfoxide) is prepared with PBS buffer solution. When the tumors in the tumor-bearing mice grow to a certain volume, 4 milligrams per kilogram of the tumor-bearing mice (mg/kg) IR-780-F is injected into the tumor-bearing mice via tail vein. The anesthetized nude mice are placed into a in vivo imaging apparatus (also referred to as living imaging apparatus) and subjected to fluorescence imaging at 0 h, 2 h, 4 h, 8 h, 12 h, 24 h, 48 h, 72 h, 96 h and 120 h. […] The organs are placed in the living imaging apparatus to observe fluorescence distribution of each organ.

[4] = Molecular spectrum test (absorption and emission spectra); format: physicochemical; settings: for maximum emission wavelength: λex 740 nm
Procedure: A certain mass of the IR-780-F sample is weighed and dissolved in dimethyl sulfoxide (DMSO) to obtain a solving solution, and the quantitative solving solution is added to 2-[4-(2-hydroxyethyl)-1-piperazinyl]-ethanesulfonic acid (HEPES, also referred to as C8H18N2O4S) buffer solution to form a solution with a concentration of 10.0 micromoles per liter […] (containing 10% dimethyl sulfoxide) and an absorption spectrum of the IR-780-F sample is measured. Ultraviolet absorption spectrum is obtained by Agilent Ultraviolet-Vis spectrophotometer with a scanning wavelength range from 500 nanometers (nm) to 900 nm at a sweep rate of 1002 nanometers per minute (nm/min). Furthermore, addition quantitative solving solution is respectively added to methanol, acetonitrile, phosphate buffered saline (PBS buffer solution), HEPES buffer solution, bovine serum and adult serum to form a solution with a concentration of 10.0 μM (containing 10% dimethyl sulfoxide) to test an emission spectrum of the IR-780-F sample. Hitachi F-4600 […] is used to obtain FT-IR emission spectrum, of the scanning wavelength is from 750 nm to 900nm, an excitation wavelength λex is 740 nm, an excitation slit width is 5 nm, and an emission slit width is 5 nm.

[5] = test system: 4T1 tumor-bearing nude mice; assay: Photothermal treatment effect in tumor-bearing mice; format: in vivo, BALB/c Nude mice
Procedure: as §1
After successful tumor loading, mice with an average tumor diameter of about 10×10 mm are randomly divided into four groups (5 mice in each group): (1) control group: intratumoral injection of 0.1 mL of saline; (2) laser group: intratumoral injection of 0.1 mL of saline followed by a laser radiation (a wavelength of 808 nm, 2.0 W/cm^2, 4 min); (3) IR-780-F group: intratumoral injection of 0.1 mL (corresponding to 80 micrograms abbreviated μg) of the IR-780-F solution without the laser radiation; (4) IR-780-F+laser group: intratumoral injection of 80 μg of the IR-780-F solution followed by the laser radiation (a wavelength of 808 mn, 2.0 W/cm^2, 4 min). The mice are anesthetized after administration of the medicine, and the tumor locations of the mice are placed under the laser radiation. When the laser irradiated the tumor locations of the mice, the temperature of the tumor locations under the laser radiation are simultaneously recorded when measured by the thermal infrared imager.

[6] = test system: 4T1 tumor-bearing nude mice; assay: Photothermal efficiency at tumor location in vivo; set-up: species or system BALB/c Nude mice; settings: IR-780-F+laser radiation group, intratumoral injection, laser 4 minutes
Procedure: as §1
The injection of the IR-780-F (containing 12.4% dimethyl sulfoxide) is prepared with PBS buffer solution for intratumoral injection. After 12 hours, the nude mice are anesthetized, imaged using a photothermal imager, and temperature changes are recorded. The tumor locations of the mice are irradiated with a laser for 4 minutes, and then the photothermal imaging is again performed on the corresponding tumor locations to record the corresponding temperature.

highest temperature of the solution [1]	distribution of near-infrared fluorescence in vivo ([3]; imaging 0-120 h)	Stoke shift value (difference between maximum emission wavelength and maximum absorption wavelength) [4]	maximum emission wavelength ([4]; in FBS)	maximum emission wavelength ([4]; in HAS)	maximum absorption wavelength ([4]; in HEPES, 10.0 μM, 10% dimethyl sulfoxide)	maximum emission wavelength ([4]; in HEPES)	maximum emission wavelength ([4]; in MeCN)	maximum emission wavelength ([4]; in MeOH)	SMILES	cell viability of the 4T1 cells [2]	fluorescence distribution in dissected organs and tumors ([3]; dissected five days later)	photothermal conversion effect compared with IR-780 [1]	tumor size ([5]; IR-780-F group: 80 μg intratumoral without laser radiation, 12th day)	tumor growth ([5]; IR-780-F without laser, compared with laser alone and control PBS group, P>0.05)	mean tumor size ([5]; IR-780-F+laser group: 80 μg intratumoral, 808 nm, 2.0 W/cm^2, 4 min, 12th day)	tumor volumes of excised tumors ([5]; IR-780-F+laser radiation group, sacrificed at the 12th day)	tumor growth ([5]; IR-780-F+laser radiation, P<0.01)	surface temperature of the tumor locations [6]
69.3 °C									CCCN1/C(=C/C=C2\CCCC(/C=C/C3=[N+](CCC)c4ccccc4C3(C)C)=C2Cl)C(C)(C)c2ccccc21.[I-] [IR-780, reference compound]	decreases with the increase of the concentrations								
69.3 °C	significant tumor targeting accumulation	38 nm	820 nm	818 nm	773 nm	804 nm	816 nm	814 nm	CC1(C)C(/C=C/C2=C(Cl)C(=C/C=C3/N(CCC(F)(F)F)c4ccccc4C3(C)C)/CCC2)=[N+](CCC(F)(F)F)c2ccccc21 [IR-780-F]	decreases with the increase of the concentrations	mainly concentrated at the tumor location and there is weak fluorescence in the lungs	better photothermal conversion effect than that of the IR-780	559±49 mm^3	does not show a significant inhibition	94±11 mm^3	significantly smaller than those in the other three groups	significantly inhibited	52.9±0.2 °C
